Test results taken from patent US7326574B2, “Compositions and methods for detecting stress-inducible proteins” (Stressgen Biotechnologies Corporation, priority 1999, dated 2008).

Key:
hsp70B′ mRNA = conditions: Leung et al., Biochem. J. 267:125-132, 1990; cited from earlier work
Jurkat cells = assay: Induction of Hsc70, Hsp70A and Hsp70B′ proteins under different induction conditions, Western blotting; format: cell-based, human; conditions: Azetidine 5 μM, 5 hours, CdCl2 100 μM, 2 hours, ZnCl2 250 μM
[1] = test system: HeLa, Jurkat and A-431 human cell lines; assay: Relative induction of Hsc70, Hsp70A and Hsp70B′ proteins; format: cell-based
A431 cells = assay: Induction of Hsc70, Hsp70A and Hsp70B′ proteins under different induction conditions, Western blotting; format: cell-based, human; conditions: Azetidine 5 μM, 5 hours, CdCl2 100 μM, 2 hours, ZnCl2 250 μM
HeLa cells = assay: as above; format: cell-based, human; conditions: Azetidine 5 μM, 5 hours, CdCl2 100 μM, 2 hours, ZnCl2 250 μM; for Induction of Hsc70, relative protein level: 20 ug total cell lysate
recombinant bovine Hsc70 = molecular target: T1, recombinant bovine Hsc70 (Bos taurus, UniProt P19120); assay: Indirect EIA, relative titre index; format: binding; conditions: Hsc70 Protein; relative to irrelevant antibody
T1 construct: purchased Stressgen Biotechnologies SPP-751
T1 sequence (P19120 whole entry): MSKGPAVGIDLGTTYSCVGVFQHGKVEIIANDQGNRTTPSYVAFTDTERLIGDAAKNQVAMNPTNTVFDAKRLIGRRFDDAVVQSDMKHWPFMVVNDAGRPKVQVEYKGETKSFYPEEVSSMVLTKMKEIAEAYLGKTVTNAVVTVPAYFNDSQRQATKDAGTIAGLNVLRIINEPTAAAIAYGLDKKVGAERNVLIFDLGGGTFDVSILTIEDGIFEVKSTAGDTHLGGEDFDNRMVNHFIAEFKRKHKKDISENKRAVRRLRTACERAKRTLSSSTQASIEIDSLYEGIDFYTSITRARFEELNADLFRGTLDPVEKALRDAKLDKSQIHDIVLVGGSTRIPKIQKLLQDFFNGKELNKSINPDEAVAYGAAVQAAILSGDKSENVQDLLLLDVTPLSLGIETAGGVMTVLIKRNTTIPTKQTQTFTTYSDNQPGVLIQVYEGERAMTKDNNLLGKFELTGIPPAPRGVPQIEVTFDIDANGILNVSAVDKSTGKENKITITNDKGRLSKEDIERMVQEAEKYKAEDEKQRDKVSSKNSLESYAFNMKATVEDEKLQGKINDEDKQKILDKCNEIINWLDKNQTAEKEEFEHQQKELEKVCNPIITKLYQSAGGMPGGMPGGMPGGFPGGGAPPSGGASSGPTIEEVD

[2] = molecular target: T2, 68 kDa (Hsp70B′) protein from HeLa cell lysates (Homo sapiens, UniProt P17066); assay: Immunoblotting of unstressed and heat stressed human cell lysates; format: binding; design: key to Reactivity with 68 kDa (Hsp70B′) protein, HeLa: 0 = no signal; 3 = a very strong signal
T2 construct: endogenous in cells; host or cells: HeLa (ATCC CCL-2), unstressed and heat stressed
T2 sequence (P17066 whole entry): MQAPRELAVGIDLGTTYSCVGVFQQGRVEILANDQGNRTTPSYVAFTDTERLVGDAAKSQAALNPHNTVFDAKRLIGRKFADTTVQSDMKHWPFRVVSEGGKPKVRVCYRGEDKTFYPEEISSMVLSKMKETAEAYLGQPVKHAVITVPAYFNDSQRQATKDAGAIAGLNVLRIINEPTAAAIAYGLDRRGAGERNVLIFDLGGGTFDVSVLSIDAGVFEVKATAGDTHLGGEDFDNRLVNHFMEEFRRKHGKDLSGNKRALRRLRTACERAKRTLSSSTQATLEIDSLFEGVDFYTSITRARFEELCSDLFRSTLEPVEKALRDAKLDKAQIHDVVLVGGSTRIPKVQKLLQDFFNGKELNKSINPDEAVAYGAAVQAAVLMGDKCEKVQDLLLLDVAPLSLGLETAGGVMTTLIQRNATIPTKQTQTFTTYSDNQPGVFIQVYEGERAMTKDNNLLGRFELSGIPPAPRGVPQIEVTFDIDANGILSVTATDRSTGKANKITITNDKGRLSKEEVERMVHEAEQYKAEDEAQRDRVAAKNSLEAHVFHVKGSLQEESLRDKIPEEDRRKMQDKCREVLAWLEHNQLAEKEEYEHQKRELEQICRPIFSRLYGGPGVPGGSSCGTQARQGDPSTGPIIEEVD

unconjugated CB2 peptide = molecular target: T3, unconjugated CB2 peptide (Homo sapiens, UniProt P17066); assay: Indirect EIA, relative titre index; format: binding; conditions: relative to irrelevant antibody
T3 construct: The CB peptide was also resynthesized on a separate occasion and designated CB2; purchased Research Genetics, Inc; host or cells: chemical synthesis

immunizing peptide = assay: Anti-peptide titre ELISA with peptide on the solid phase; format: binding, human; conditions: rabbit host
Method: Methods: Hsp70B′ Antibodies were produced as follows. Hsp70B′ antibodies were produced in rabbits, goats and mice with either synthetic peptides or recombinant Hsp70B′ protein as immunogen. Eight peptides were chosen from the human Hsp70B′ amino acid sequence. One of the Hsp70B′ peptides, the NT peptide […](C) (SEQ ID NO:9) corresponded to an N-terminal fragment. […] Sera were collected at various time points and the antibody response to the immunizing protein or peptide was evaluated in an indirect enzyme immunoassay (EIA). Titres were established as the dilution factor at which the absorbance in the test sample was equal to 0.2 optical density units. […]
Anti-peptide titre was determined as follows. […] The anti-peptide titres in the rabbits, goats, and mice were determined in an ELISA with peptide on the solid phase. […]
Biotinylated secondary antibodies (100 μl) were added to each microtitre plate test well and incubated for four hours at room temperature. […] The plates were read at 414 λ, 20 minutes following the addition of substrate. Titres were established as the reciprocal dilution factor at which the test sample was equal to 0.2 absorbance units.

[3] = molecular target: T4, recombinant hamster Grp78 (Mesocricetus auratus, UniProt P07823); assay: Indirect EIA, relative titre index; format: binding; conditions: Grp78 Protein; relative to irrelevant antibody
T4 construct: purchased Stressgen Biotechnologies SPP-765
T4 sequence (P07823 19-654): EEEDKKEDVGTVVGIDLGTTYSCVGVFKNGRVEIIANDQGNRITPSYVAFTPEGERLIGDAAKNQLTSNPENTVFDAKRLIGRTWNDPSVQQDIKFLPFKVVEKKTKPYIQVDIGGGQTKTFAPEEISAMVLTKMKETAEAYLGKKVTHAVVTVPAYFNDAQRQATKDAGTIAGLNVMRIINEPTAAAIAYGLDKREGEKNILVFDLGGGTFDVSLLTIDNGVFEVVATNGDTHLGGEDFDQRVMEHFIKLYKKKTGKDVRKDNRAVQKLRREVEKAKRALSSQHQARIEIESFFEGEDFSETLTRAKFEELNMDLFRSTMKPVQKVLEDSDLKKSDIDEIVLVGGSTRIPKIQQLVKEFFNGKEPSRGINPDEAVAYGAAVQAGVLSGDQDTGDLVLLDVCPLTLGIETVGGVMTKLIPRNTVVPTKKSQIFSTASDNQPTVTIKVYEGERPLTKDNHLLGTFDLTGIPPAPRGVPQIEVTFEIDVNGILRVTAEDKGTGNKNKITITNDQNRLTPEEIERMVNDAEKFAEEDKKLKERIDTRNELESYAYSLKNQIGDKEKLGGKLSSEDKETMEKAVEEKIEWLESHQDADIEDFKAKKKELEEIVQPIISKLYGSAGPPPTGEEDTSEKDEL

unconjugated TCB peptide = molecular target: T5, unconjugated TCB peptide (Homo sapiens, UniProt P17066); assay: Indirect EIA, relative titre index; format: binding; conditions: relative to irrelevant antibody
T5 construct: purchased Research Genetics, Inc; host or cells: chemical synthesis

recombinant human Hsp70A = molecular target: T6, recombinant human Hsp70A (Homo sapiens, UniProt P0DMV8); assay: Indirect EIA, relative titre index; format: binding; conditions: Hsp70A Protein; relative to irrelevant antibody
T6 construct: purchased Stressgen Biotechnologies SPP-755
T6 sequence (P0DMV8 whole entry): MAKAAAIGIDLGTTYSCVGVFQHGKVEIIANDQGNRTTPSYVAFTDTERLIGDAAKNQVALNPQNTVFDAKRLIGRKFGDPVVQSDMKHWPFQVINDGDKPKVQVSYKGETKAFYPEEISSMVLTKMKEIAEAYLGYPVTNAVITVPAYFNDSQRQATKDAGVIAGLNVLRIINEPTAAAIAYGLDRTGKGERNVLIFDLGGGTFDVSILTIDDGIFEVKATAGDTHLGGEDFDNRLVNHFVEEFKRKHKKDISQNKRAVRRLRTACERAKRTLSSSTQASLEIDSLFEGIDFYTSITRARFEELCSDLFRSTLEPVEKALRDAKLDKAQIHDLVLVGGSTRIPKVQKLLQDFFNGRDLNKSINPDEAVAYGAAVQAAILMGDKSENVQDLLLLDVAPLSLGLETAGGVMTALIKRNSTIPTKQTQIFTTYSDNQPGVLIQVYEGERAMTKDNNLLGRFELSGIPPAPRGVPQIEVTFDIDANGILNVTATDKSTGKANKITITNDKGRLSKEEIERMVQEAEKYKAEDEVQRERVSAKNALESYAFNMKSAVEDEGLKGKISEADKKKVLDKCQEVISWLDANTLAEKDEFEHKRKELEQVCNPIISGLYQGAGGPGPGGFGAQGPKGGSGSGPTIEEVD

unconjugated ECB peptide = molecular target: T7, unconjugated ECB peptide (Homo sapiens, UniProt P17066); assay: Indirect EIA, relative titre index; format: binding; conditions: relative to irrelevant antibody
T7 construct: purchased Research Genetics, Inc; host or cells: chemical synthesis

Hsp70B′ [4] = molecular target: T8, Hsp70B′ (Homo sapiens, UniProt P17066); assay: Indirect EIA, relative titre index; format: binding
T8 construct: E. coli BL21 (DE3) cells harboring the expression plasmid for full length human Hsp70B′; made in house; host or cells: E. coli BL21 (DE3) / BLR (DE3), pET24a
T8 sequence (P17066 whole entry): as the sequence (P17066 whole entry) above

Hsp70B′ [5] = molecular target: T8, Hsp70B′; assay: Western blotting of HSP70 family members; format: binding; conditions: SDS-denatured recombinant protein; band intensity 0-3
E. coli DnaK = E. coli DnaK (Escherichia coli, UniProt P0A6Y8)
E. coli DnaK, sequence (P0A6Y8 whole entry): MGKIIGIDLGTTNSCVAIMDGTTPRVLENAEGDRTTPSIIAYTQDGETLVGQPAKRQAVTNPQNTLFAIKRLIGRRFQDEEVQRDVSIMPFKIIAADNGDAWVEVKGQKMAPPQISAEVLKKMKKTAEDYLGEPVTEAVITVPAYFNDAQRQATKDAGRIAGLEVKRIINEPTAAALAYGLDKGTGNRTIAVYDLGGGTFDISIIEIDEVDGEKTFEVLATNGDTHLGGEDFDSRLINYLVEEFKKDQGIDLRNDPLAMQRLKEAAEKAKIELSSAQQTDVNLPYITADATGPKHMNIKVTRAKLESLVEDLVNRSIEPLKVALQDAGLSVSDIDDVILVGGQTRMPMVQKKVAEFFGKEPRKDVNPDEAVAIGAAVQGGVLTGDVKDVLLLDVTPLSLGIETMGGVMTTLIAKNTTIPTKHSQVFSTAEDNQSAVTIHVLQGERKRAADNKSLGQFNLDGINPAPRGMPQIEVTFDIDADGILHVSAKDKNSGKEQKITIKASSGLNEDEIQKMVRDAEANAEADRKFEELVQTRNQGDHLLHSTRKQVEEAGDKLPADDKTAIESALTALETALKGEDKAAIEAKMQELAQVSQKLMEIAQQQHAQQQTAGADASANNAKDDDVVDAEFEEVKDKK

[6] = molecular target: recombinant M. tuberculosis Hsp71 (Mycobacterium tuberculosis, UniProt P9WMJ9)
recombinant M. tuberculosis Hsp71, sequence (P9WMJ9 whole entry): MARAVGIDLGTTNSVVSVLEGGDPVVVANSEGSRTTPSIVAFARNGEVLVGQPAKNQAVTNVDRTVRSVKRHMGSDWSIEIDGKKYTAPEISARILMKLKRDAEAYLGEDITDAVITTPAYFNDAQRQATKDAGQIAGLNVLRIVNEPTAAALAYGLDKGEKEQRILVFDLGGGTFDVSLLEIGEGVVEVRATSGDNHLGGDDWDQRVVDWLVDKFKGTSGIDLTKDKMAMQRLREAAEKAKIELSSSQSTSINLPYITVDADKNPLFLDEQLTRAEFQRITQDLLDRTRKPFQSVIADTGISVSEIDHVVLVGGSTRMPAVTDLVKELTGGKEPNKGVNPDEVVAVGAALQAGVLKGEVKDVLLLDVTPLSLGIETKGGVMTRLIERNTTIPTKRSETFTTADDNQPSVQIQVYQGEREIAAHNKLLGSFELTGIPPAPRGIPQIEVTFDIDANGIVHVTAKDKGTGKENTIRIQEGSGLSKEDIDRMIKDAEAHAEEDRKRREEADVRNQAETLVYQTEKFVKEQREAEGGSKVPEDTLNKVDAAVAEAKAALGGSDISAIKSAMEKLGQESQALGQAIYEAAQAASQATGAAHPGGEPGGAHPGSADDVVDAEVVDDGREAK

unconjugated CE peptide = molecular target: T9, unconjugated CE peptide (Homo sapiens, UniProt P17066); assay: Indirect EIA, relative titre index; format: binding; conditions: relative to irrelevant antibody
T9 construct: purchased Research Genetics, Inc; host or cells: chemical synthesis

Compound	Induction of Hsc70, relative protein level (Jurkat cells)	Induction of Hsp70A, relative protein level (Jurkat cells)	Induction of Hsp70A/B′, relative protein level (Jurkat cells)	Induction of Hsp70B′, relative protein level (Jurkat cells)	Expression of the constitutive Hsc70 protein [1]	Induction of Hsp70B′ protein [1]	Induction of Hsc70, relative protein level (A431 cells)	Induction of Hsp70A, relative protein level (A431 cells)	Induction of Hsp70A/B′, relative protein level (A431 cells)	Induction of Hsp70B′, relative protein level (A431 cells)	Induction of Hsp70A, relative protein level (HeLa cells)	Induction of Hsp70A/B′, relative protein level (HeLa cells)	Induction of Hsp70B′, relative protein level (HeLa cells)	Induction of Hsc70, relative protein level (HeLa cells)	also measured
[Cl][Cd][Cl] [CdCl2]	+3	+2	+2	+3	not affected	induced	+3	+2	+3	+1	+3	+3	+2	+3	hsp70B′ mRNA after treatment (hsp70B′ mRNA): only trace amounts
ECB (VPGGSSCGTQARQGDPSTGPI)															Relative Titre Index (recombinant bovine Hsc70): 1; Reactivity with 68 kDa (Hsp70B′) protein, HeLa HS ([2]; heat stressed HeLa lysate, 10-20 μg): 3; Antisera that specifically detected Hsp70B′ in immunoblots (fraction of rabbits) ([2]; sera from three individual rabbits): ⅓; Reactivity with 68 kDa (Hsp70B′) protein, HeLa ([2]; unstressed HeLa lysate, 10-20 μg): 0; Relative Titre Index (unconjugated CB2 peptide): ≧86; # Animals Responding (immunizing peptide): 3/3; Antisera Titer (EIA) (immunizing peptide; individual animals, reciprocal dilution giving 0.2 absorbance units): >204800; Relative Titre Index [3]: 1; Relative Titre Index (unconjugated TCB peptide): *1; Relative Titre Index (recombinant human Hsp70A): 1; Relative Titre Index (unconjugated ECB peptide): ≧129; Relative Titre Index (Hsp70B′ [4]; Hsp70B′ Protein, relative to irrelevant antibody, rabbit antibody): ≧41; Preferential reactivity with Hsp70B′ over other HSP70 protein homologs (Hsp70B′ [4]; based on absolute relative titre index values): 41 fold; Hsp70B′ Reactivity Rec. protein (Hsp70B′ [5]): 3; Relative Titre Index (E. coli DnaK): 1; Relative Titre Index [6]: 1; Relative Titre Index (unconjugated CE peptide): 1
[Cl-].[Cl-].[Zn+2] [ZnCl2]	+3	+2	+1	+1	not affected	induced	+3	+2	+3	+2	+3	+3	+1	+3	
